Measured values published in article PMC5567267, “Discovery of a potent protein kinase D inhibitor: insights in the binding mode of pyrazolo[3,4-d]pyrimidine analogues” (MedChemComm, 2017).
Read-outs that look alike come from different tables or passages of the source.

How the values were obtained:
[1] = molecular target: T1, PKD2 (Homo sapiens, UniProt Q9BZL6); assay: Cellular screening assay using phospho-cortactin (Ser-298) as a readout; type: cell-based; conditions: HEK293T cells co-transfected with FLAG-PRKD2 and myc-CTTN; for cellular activity against PKD2 (in words): pSer-298 cortactin western blot; for inhibition at 40 µM: HEK-293T, 40 μM compound, 30 min pretreatment, 500 nM PDB 15 min, read-out: inhibition of PKD2 mediated cortactin Ser-298 phosphorylation
T1 construct: made in house; host or cells: HEK293T cells, transient transfection with pDEST27-PRKD2, stimulated with 500 nM PDB before lysis
T1 sequence (Q9BZL6 1-878): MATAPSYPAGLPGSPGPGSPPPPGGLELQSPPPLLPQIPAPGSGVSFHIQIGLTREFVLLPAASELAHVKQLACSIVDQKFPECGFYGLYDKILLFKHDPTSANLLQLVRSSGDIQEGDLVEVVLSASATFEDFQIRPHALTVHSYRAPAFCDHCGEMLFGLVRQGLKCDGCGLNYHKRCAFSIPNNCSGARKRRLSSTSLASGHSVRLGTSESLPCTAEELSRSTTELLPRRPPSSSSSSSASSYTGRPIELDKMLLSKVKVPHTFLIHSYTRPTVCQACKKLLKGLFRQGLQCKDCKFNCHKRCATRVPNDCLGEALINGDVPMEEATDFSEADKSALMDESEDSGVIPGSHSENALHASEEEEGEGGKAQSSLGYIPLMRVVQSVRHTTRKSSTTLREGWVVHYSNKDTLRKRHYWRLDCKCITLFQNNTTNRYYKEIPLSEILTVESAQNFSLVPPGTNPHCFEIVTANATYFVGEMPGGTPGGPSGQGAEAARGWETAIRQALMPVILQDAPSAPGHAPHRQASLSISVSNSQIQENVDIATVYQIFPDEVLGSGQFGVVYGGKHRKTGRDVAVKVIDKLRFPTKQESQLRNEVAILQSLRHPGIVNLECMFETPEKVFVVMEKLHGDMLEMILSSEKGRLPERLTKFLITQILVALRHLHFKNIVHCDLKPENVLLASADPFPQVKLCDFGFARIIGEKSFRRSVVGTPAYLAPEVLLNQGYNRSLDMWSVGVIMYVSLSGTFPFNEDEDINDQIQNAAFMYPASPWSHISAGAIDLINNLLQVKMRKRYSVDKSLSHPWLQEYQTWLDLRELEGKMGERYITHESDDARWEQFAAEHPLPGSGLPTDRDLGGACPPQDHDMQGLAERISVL
Source text: Therefore we used a cellular assay in which we were able to specifically follow PKD mediated phosphorylation of cortactin, a known PKD substrate, at Ser-298.[15] […] Cortactin phosphorylation at Ser-298 in our assay was PKD-specific, since co-transfection of PKD and cortactin was necessary to produce an adequate signal (data not shown). We selected four compounds for further validation in a cellular assay against PKD2 (Fig. 5).
Fig. 5 The effect of 1-NM-PP1 analogues on PKD mediated phosphorylation of cortactin at Ser-298. HEK293T cells co-transfected with FLAG-PRKD2 and myc-CTTN were pretreated with the indicated compounds for 30 min prior to stimulation with 500 nM Phorbol 12,13-dibutyrate (PDB) for 15 min. Phosphorylation of cortactin was followed via western blot using a home-made pSer-298 antibody and subsequently reprobed for total cortactin (anti-c-Myc; 9E10) and PKD (anti-FLAG M2). Quantification of pSer-298/c-Myc signals of three independent experiments is shown in the graph below. […]
Cellular screening assay using phospho-cortactin as a readout
HEK293T cells were seeded in a 12-well plate at 150.000 cells/well. The next day, cells were transfected with 0.5µg of pcDNA3-Myc-CTTN and 0.5µg of pdcDNA-FLAG-PRKD2. Forty-eight hours after transfection, cells were incubated with compound at the indicated concentrations for 30 min, followed by stimulation with 500nM phorbol 12,13-dibutyrate (PDB) for 15 min. Subsequently, cells were lysed in 50mM Tris pH 7.4, 15mM EDTA, 150mM NaCl, 0.1% (v/v) NP-40 and 25% (v/v) glycerol. Protein quantitation was determined via a Bradford assay. Equal amounts of lysate (30µg) were loaded on a SDS-polyacrylamide gel and subjected to immunoblotting. Blots were probed with Cortactin pSer-298 antibody (home-made) and anti-tubulin antibody (Sigma, St. Louis, Missouri). Subsequently, blots were stripped and reprobed with anti-Myc 9E10 (Sigma, St.
Louis, Missouri) for cortactin and anti-FLAG M2 (Sigma, St. Louis, Missouri) for PKD2.

[2] = molecular target: T1, PKD2; assay: PKD2 screening assay (in vitro radiometric kinase assay); type: biochemical; conditions: for remaining activity at 1 µM: 10 min
Procedure: All 35 described analogues were characterized in vitro via an initial screening at 1 μM against PKD2. […]
scanning of a coomassie stained SDS-polyacrylamide gel.
An in vitro radiometric assay was used to determine the inhibition of PKD in presence of various compounds at a […]
determinations. Reactions were carried out in 40µl of a mixture containing 50mM Tris-HCl pH 7.4, 10mM MgCl2, 50ng of PDB stimulated GST-PKD2, 4µg/ml Syntide-2 (Sigma Aldrich, St. Louis, USA), 25µM ATP and 2µCi [γ-32P]ATP (Perkin-Elmer, Massachusetts, USA). After 10’ the reaction was stopped by spotting 30µl of the reaction on whatmann P81 filter paper. The filter papers were washed 3 times in 0.5% phosphoric acid, followed by one wash in 100% acetone. Subsequently the papers were air-dried and counted using the Tri-Carb 2810 TR scintillation counter (Perkin-Elmer). Percentage of PKD2 inhibition was determined relative to a condition where no inhibitor was added (0,1% dimethylsulfoxide (DMSO)). Graphs were plotted and IC50 values were determined using the GraphPad software package (Prism). […]

[3] = system: PKD; parameters: method as in Wang group; conditions: previously reported value; different assay setup and enzyme preparation; ref Wang group; cited from earlier work
[4] = ESI table, initial screening of all analogues at 1µM, read-out: % PKD2 activity remaining (1µM) (average ±SD)
[5] = compound at 1 μM, PDB stimulated GST-PKD2, Syntide-2, 25µM ATP, relative to no inhibitor (DMSO), read-out: % PKD 2 activity remaining (1 μM) (Average ± SD)
[6] = PDB stimulated GST-PKD2, Syntide-2, 25µM ATP, radiometric

cellular activity against PKD2 (in words) [1] | remaining activity at 1 µM [2, 4] [%] | remaining activity at 1 µM [2, 5] [%] | IC50 [2, 6] [µM] | fold increase in potency compared to 1-NM-PP1 ([2]; PKD2 IC50 relative to 1-NM-PP1) [fold] | IC50 ([2]; in vitro potency as stated in the conclusions) [µM] | Structure (SMILES) | inhibition at 40 µM [1] [%] | IC50 [3] [µM]
did not show cellular activity | 53 ± 7.1 | 53 ± 7.1 | 2.21 | – | – | CC(C)(C)n1nc(-c2cc3ccccc3s2)c2c(N)ncnc21 [Compound 6l] | – | –
dose-dependent inhibition | 8 ± 0.8 | 8 ± 0.8 | 0.033 | 10 | ~0.033 | CC(C)(C)n1nc(-c2c[nH]c3ccccc23)c2c(N)ncnc21 [Compound 18, 1-tert-butyl-3-(1H-indol-3-yl)-1H-pyrazolo[3,4-d]pyrimidin-4-amine] | 85 | –
negligible cellular activity | 89 ± 6.2 | 89 ± 6.2 | 8.17 | – | – | CCCCNc1nc(N)c2c(-c3cccc4ccccc34)nn(C(C)(C)C)c2n1 [Compound 13h, N6-butyl-1-tert-butyl-3-(1-naphthyl)-1H-pyrazolo[3,4-d]pyrimidine-4,6-diamine] | – | –

Structure (SMILES) | cellular activity against PKD2 (in words) [1] | remaining activity at 1 µM [2, 4] [%] | remaining activity at 1 µM [2, 5] [%] | IC50 [2, 6] [µM] | fold increase in potency compared to 1-NM-PP1 ([2]; PKD2 IC50 relative to 1-NM-PP1) [fold] | IC50 ([2]; in vitro potency as stated in the conclusions) [µM] | inhibition at 40 µM [1] [%] | IC50 [3] [µM]
CC(C)(C)n1nc(Cc2cccc3ccccc23)c2c(N)ncnc21 [Compound 1, 1-tert-butyl-3-(1-naphthylmethyl)-1H-pyrazolo[3,4-d]pyrimidin-4-amine, reference compound] | dose-dependent inhibition | 23 ± 1.7 | 23 ± 1.7 | 0.398 | – | – | 50 | 0.133
